According to US20220177462A1, “SUBSTITUTED HETEROCYCLIC AMIDE COMPOUND AND PREPARATION METHOD THEREFOR AND PHARMACEUTICAL USE THEREOF” (GENFLEET THERAPEUTICS (SHANGHAI) INC., priority 2019, published 2022):
Read-outs that look alike come from different tables or passages of the source.

Key:
RIPK1 enzyme = molecular target: T1, RIPK1 enzyme (Homo sapiens, UniProt Q13546); experiment: Inhibitory activity of the compounds against RIPK1 enzyme (33P-ATP, MBP substrate); assay type: biochemical; details: 36 nM RIPK1, 0.33 mg/ml MBP, 155 μM P33-labeled ATP, room temperature 2 hours
T1 construct: purchased Eurofins 16-022
T1 sequence (Q13546 1-671): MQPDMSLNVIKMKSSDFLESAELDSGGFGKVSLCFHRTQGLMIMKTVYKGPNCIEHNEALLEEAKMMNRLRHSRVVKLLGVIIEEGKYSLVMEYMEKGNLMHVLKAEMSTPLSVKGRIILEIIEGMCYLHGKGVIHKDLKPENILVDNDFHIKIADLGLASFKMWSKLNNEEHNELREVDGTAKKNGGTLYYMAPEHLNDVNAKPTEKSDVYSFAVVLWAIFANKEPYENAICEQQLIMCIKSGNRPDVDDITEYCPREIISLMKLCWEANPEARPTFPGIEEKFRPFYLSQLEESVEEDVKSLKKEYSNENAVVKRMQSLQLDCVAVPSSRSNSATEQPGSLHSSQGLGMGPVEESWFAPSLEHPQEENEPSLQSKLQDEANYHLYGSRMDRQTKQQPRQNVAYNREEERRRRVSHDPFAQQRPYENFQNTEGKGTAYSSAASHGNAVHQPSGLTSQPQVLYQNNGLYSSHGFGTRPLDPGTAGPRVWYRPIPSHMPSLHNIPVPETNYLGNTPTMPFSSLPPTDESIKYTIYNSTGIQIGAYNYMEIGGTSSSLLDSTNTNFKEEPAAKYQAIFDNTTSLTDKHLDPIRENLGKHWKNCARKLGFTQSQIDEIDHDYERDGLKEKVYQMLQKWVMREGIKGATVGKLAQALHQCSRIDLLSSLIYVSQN
Description: The test compound was dissolved in DMSO to prepare a 10 mM stock solution. The stock solution was diluted in 3.16 folds with DMSO to a series of gradient concentrations. Then, the resultant solution was diluted in 50 folds with MOPS buffer pH 7.0 to prepare a working solution. The working solution was mixed with 36 nM RIPK1 (final concentration) and 0.33 mg/ml substrate MBP homogeneously. Thereafter, 10 mM magnesium ion and 155 μM P^33 isotopically labeled ATP were added for the reaction. The final concentration of DMSO was 2%. After the reaction was carried out at room temperature for 2 hours phosphoric acid was added to terminate the reaction. The final reaction system was tested using a liquid scintillation counter after treatment. The result obtained by subtracting a blank control from the tested value was converted to activity percentage as compared to the readout value of control group. The activity percentage was plotted against the final concentration of respective compound using a 4-parameter fitting to obtain the inhibitory IC50 of the compound against RIPK1 enzyme.

U937 cells = experiment: Inhibitory activity against programmed necroptosis of U937 cells induced by TNF-α; assay type: cell-based, human
Description: The U937 cell strain which was used in the following Testing Examples was derived from ATCC, No.: CRL-1593.2, batch No.: 63479999, culture medium: RPMI-1640+10% FBS.
The compound was dissolved in DMSO to prepare a 10 mM stock solution. The stock solution was diluted in 3.16 folds with DMSO to a series of gradient concentrations. Then, the resultant solution was diluted in 250 folds with a culture medium to prepare a working solution. The U937 cells were inoculated in a 384-well plate at 5000/well. The compound at respective concentration was added to each of the cells, and was mixed with the cells homogeneously. 100 ng/ml human TNF-α and 25 μM Q-VD-Oph were added simultaneously to induce programmed necroptosis of the cells. The final concentration of DMSO was 2%. The cells were placed in the incubator at 37° C. and 5% CO2 for further culture of 48 hours. Celltiter-Glo reagent was used for detection. After adequate pyrolysis reaction, the chemiluminescence readout value was recorded by a microplate reader. The survival rate was calculated from the detection results using the equation as follows: SR (%)=(RLU compound−RLU blank)/(RLU high control−RLU blank)×100%. The survival rate was plotted against the final concentration of respective compound using a 4-parameter fitting to calculate the inhibitory IC50 of the compound against programmed necroptosis of cells induced by TNF-a.

L929 cells = experiment: Inhibitory activity against programmed necroptosis of L929 cells induced by TNF-α; assay type: cell-based; details: Mus musculus, 30 ng/ml murine TNF-α and 15 μM Z-VAD, 6 hours, CellTiter-Glo survival rate, read-out: L929 AbIC50
Description: The compound was dissolve in DMSO to prepare a 10 mM stock solution. The stock solution was diluted in 3.16 folds with DMSO to a series of gradient concentrations. Then, the resultant solution was diluted in 100 folds with a culture medium to prepare a working solution. The L929 cells were inoculated in a 384-well plate at 10000/well. The compound at respective concentration was added to each of the wells, and was mixed with the cells homogeneously. 30 ng/ml murine TNF-α and 15 μM Z-VAD were added simultaneously to induce programmed necroptosis of the cells. The final concentration of DMSO was 2%. The cells were placed in an incubator at 37° C. and 5% CO2 for further culture of 6 hours. CellTiter-Glo reagent was used for detection. After adequate pyrolysis reaction, the chemiluminescence readout value was recorded by a microplate reader. The survival rate was calculated from the detection results using the equation as follows: SR (%)=(RLU compound −RLU blank)/(RLU high control−RLU blank)×100%. The survival rate was plotted against the final concentration of respective compound using a 4-parameter fitting to calculate the inhibitory IC50 of the compound against programmed necroptosis of cells induced by TNF-a.

Structure (SMILES) | IC50 (RIPK1 enzyme) | IC50 (U937 cells; Homo sapiens, U-937, 48 h, read-out: U937 IC50(μM), 100 ng/ml human TNF-α and 25 μM Q-VD-Oph, 48 hours, CellTiter-Glo survival rate) | IC50 (L929 cells) | IC50 (U937 cells; Homo sapiens, U-937, 48 h, 100 ng/ml human TNF-α and 25 μM Q-VD-Oph, 48 hours, CellTiter-Glo survival rate, read-out: U937 IC50) | IC50 (U937 cells; 100 ng/ml human TNF-α and 25 μM Q-VD-Oph, 48 hours, CellTiter-Glo survival rate, read-out: U937 IC50)
C[C@H](c1ccccc1OC(F)(F)F)N1CCc2ncc(-c3ccc4nc(N)sc4c3)cc2C1=O (single isomer, unassigned) [Compound Z54-2] | 51 nM | 0.001 µM | < 3 nM | – | –
Nc1nc2ccc(-c3cnc4c(c3)C(=O)N(Cc3cc(F)cc(F)c3OC3CC3)CC4)cc2s1 [Compound Z64, 3-(2-aminobenzo[d]thiazol-6-yl)-6-(2-cyclopropoxy-3,5-difluorobenzyl)-7,8-dihydro-1,6-naphthyridin-5(6H)-one] | 34 nM | – | 3 nM | 0.004 µM | –
COc1ncc(-c2ccc3nc(N)sc3c2)cc1C(=O)NC(C)c1ccccc1OC(F)(F)F (single isomer, unassigned) [Compound Z1-2] | 14 nM | – | 6 nM | – | 0.028 µM
